From US20200030415A1 (priority 2018, published 2020)
Where “and” joins values, the source holds several entries; their conditions need not be identical. Equal entries are not always repeated. Where two headings read alike, the source gives them in different places.

What was measured:
Conditions in all cases: human, in vivo
[1] = test system: migraine
[2] = test system: migraine; remark: listed apart in the source
[3] = test system: chronic migraine
[4] = test system: chronic migraine; remark: listed apart in the source
[5] = test system: chronic migraine; remark: listed apart in the source

Molecule: CN(C)CCC=C1c2ccccc2CCc2ccccc21 [Amitriptyline, amitriptyline]
- change of headaches with oral medication [1]: minimal change
- adverse effect of oral preventive medication [2]: weight gain
- effect of oral preventive medication on headache frequency [2]: none of these reduced their headache frequency

Molecule: CC12CC3CC(C)(C1)CC(N)(C3)C2 [Namenda, memantine]
- benefit of added treatment [1]: minimal benefit

Molecule: CC(C)NCC(O)COc1cccc2ccccc12 (centres unmarked) [Propranolol]
- adverse effect of oral preventive medication [2]: limited their exercise tolerance
- effect of oral preventive medication on headache frequency [2]: none of these reduced their headache frequency

Molecule: C[C@@H]1[C@H](c2c(F)ccc(F)c2F)C[C@H](NC(=O)c2cnc3c(c2)C[C@@]2(C3)C(=O)Nc3ncccc32)C(=O)N1CC(F)(F)F [atogepant, reference compound]
- headache frequency [3]: 9 days a month

Molecule: CC1(C)O[C@@H]2[C@@H](CO[C@@]3(COS(N)(=O)=O)OC(C)(C)O[C@@H]23)O1 [topiramate]
- headache control with oral preventive medication ([4]; po): without headache control
- change of headaches with oral medication [1]: minimal change
- adverse effect of oral preventive medication [2]: cognitive slowing
- effect of oral preventive medication on headache frequency [2]: none of these reduced their headache frequency

Molecule: OnabotulinumtoxinA
- improvement of headache days from baseline [4]: about 50%
- migraine days per month [4]: 15 days per month
- headache frequency [1]: 10/30
- headache intensity [1]: 6-7 out of a scale of 10
- headache intensity [2]: 7 out of 10
- headache frequency [3]: 10 days a month
- headache frequency post treatment [5]: 14 days/month

B1: Ajovy (antibody, chains of the INN, looked up, V domains shown)
VH: EVQLVESGGGLVQPGGSLRLSCAASGFTFSNYWISWVRQAPGKGLEWVAEIRSESDASATHYAEAVKGRFTISRDNAKNSLYLQMNSLRAEDTAVYYCLAYFDYGLAIQNYWGQGTLVTVSS
VL: EIVLTQSPATLSLSPGERATLSCKASKRVTTYVSWYQQKPGQAPRLLIYGASNRYLGIPARFSGSGSGTDFTLTISSLEPEDFAVYYCSQSYNYPYTFGQGTKLEIK
- headache intensity ([2]; sc): lower intensity

B2: erenumab (antibody, chains of the INN, looked up, V domains shown)
VH: QVQLVESGGGVVQPGRSLRLSCAASGFTFSSFGMHWVRQAPGKGLEWVAVISFDGSIKYSVDSVKGRFTISRDNSKNTLFLQMNSLRAEDTAVYYCARDRLNYYDSSGYYHYKYYGMAVWGQGTTVTVSS
VL: QSVLTQPPSVSAAPGQKVTISCSGSSSNIGNNYVSWYQQLPGTAPKLLIYDNNKRPSGIPDRFSGSKSGTSTTLGITGLQTGDEADYYCGTWDSRLSAVVFGGGTKLTVL
- headache frequency [5]: 10 days/month and 15 days/month
